{
  "source": "patent US8633181B2",
  "about": "“Treatment of cutaneous hemangioma” (Rutgers, The State University of New Jersey, priority 2009, dated 2014)",
  "origin": "cited, not measured here",
  "system": "severe hemangioma of infants",
  "conditions": "systemic propranolol",
  "data": [
    {"smiles": "CC(C)NCC(O)COc1cccc2ccccc12", "note": "(stereo not shown) [propranolol]", "values": [
      {"measurement": "time to significant shrinkage of the hemangioma after initiation", "result": "about 24 hours"}
    ]}
  ]
}
